The target in assay [1] is human kinase Mps-1 (Homo sapiens (Human), UniProt P33981). Nature of the assay: Mps-1 kinase assay (TR-FRET). Conditions: 10 μM ATP; read-out: Mps1 avg (IC50 [mol/l]). The assay is classed as biochemical. How it is done: The human kinase Mps-1 phosphorylates a biotinylated substrate peptide. Detection of the phosphorylated product is achieved by time-resolved fluorescence resonance energy transfer (TR-FRET) from Europium-labelled anti-phospho-Serine/Threonine antibody as donor to streptavidin labelled with cross-linked allophycocyanin (SA-XLent) as acceptor. Compounds are tested for their inhibition of the kinase activity.
N-terminally GST-tagged human full length recombinant Mps-1 kinase (purchased from Invitrogen, Karslruhe, Germany, cat. no PV4071) was used. As substrate for the kinase reaction a biotinylated peptide of the amino-acid sequence biotin-Ahx-PWDPDDADITEILG (C-terminus in amide form, purchased from Biosyntan GmbH, Berlin) was used.
For the assay 50 nl of a 100-fold concentrated solution of the test compound in DMSO was pipetted into a black low volume 384 well microtiter plate (Greiner Bio-One, Frickenhausen, Germany), 2 μl of a solution of Mps-1 in assay buffer [0.1 mM sodium-ortho-vanadate, 10 mM MgCl2, 2 mM DTT, 25 mM Hepes pH 7.7, 0.05% BSA (w/v), 0.001% Pluronic F-127] were added and the mixture was incubated for 15 min at 22° C. to allow pre-binding of the test compounds to Mps-1 before the start of the kinase reaction. Then the kinase reaction was started by the addition of 3 μl of a solution of 16.7 μM adenosine-tri-phosphate (ATP, 16.7 μM=>final conc. in the 5 μl assay volume is 10 μM) and peptide substrate (1.67 μM=>final conc. in the 5 μl assay volume is 1 μM) in assay buffer and the resulting mixture was incubated for a reaction time of 60 min at 22° C. The concentration of Mps-1 in the assay was adjusted to the activity of the enzyme lot and was chosen appropriate to have the assay in the linear range, typical enzyme concentrations were in the range of about 0.5 nM (final conc. in the 5 μl assay volume). The reaction was stopped by the addition of 5 μl of a solution of TR-FRET detection reagents (100 mM Hepes pH 7.4, 0.1% BSA, 40 mM EDTA, 140 nM Streptavidin-XLent [#61GSTXLB, Fa. Cis Biointernational, Marcoule, France], 1.5 nM anti-phospho(Ser/Thr)-Europium-antibody [#AD0180, PerkinElmer LAS, Rodgau-Jugesheim, Germany]. Instead of the 1.5 nM anti-phospho(Ser/Thr)-Europium-antibody a mixture of 2 nM unlabeled anti-phospho ser/thr-pro antibody MPM-2 [Millipore cat. #05-368] and 1 nM LANCE EU-W1024 labeled anti-mouse IgG antibody [Perkin-Elmer, product no. AD0077] can be used).
The resulting mixture was incubated 1 h at 22° C. to allow the binding of the phosphorylated peptide to the anti-phospho(Ser/Thr)-Europium-antibody. Subsequently the amount of phosphorylated substrate was evaluated by measurement of the resonance energy transfer from the Europium-labelled anti-phospho(Ser/Thr) antibody to the Streptavidin-XLent. Therefore, the fluorescence emissions at 620 nm and 665 nm after excitation at 350 nm was measured in a Viewlux TR-FRET reader (PerkinElmer LAS, Rodgau-Jugesheim, Germany). The “blank-corrected normalized ratio” (a Viewlux specific readout, similar to the traditional ratio of the emissions at 665 nm and at 622 nm, in which blank and Eu-donor crosstalk are subtracted from the 665 nm signal before the ratio is calculated) was taken as the measure for the amount of phosphorylated substrate. The data were normalised (enzyme reaction without inhibitor=0% inhibition, all other assay components but no enzyme=100% inhibition).
For orientation: Time-resolved FRET reads energy transfer from a long-lived donor to a nearby acceptor.

The subject of assay [2] is spindle assembly checkpoint. Description: SAC-Formation - Paclitaxel-Induced Assay. The assay is classed as cell-based. To be noted: Homo sapiens; HeLa cells, paclitaxel 0.05 μM, 24 h, phosphorylated histone H3 on serine 10. From the text: The spindle assembly checkpoint assures the proper segregation of chromosomes during mitosis. Upon entry into mitosis, chromosomes begin to condensate which is accompanied by the phosphorylation of histone H3 on serine 10. Dephosphorylation of histone H3 on serine 10 begins in anaphase and ends at early telophase. Accordingly, phosphorylation of histone H3 on serine 10 can be utilized as a marker of cells in mitosis. Nocodazole is a microtubule destabilizing substance. Paclitaxel is a microtubule stabilizing compound. Thus, nocodazole as well as paclitaxel interfere with microtubule dynamics and mobilize the spindle assembly checkpoint. […] The mitotic breakthrough can be detected by the decrease of cells with phosphorylation of histone H3 on serine 10. This decline is used as a marker to determine the capability of compounds of the present invention to induce a mitotic breakthrough. The typical morphological alteration of nuclei with a prematurely completed mitosis after SAC-inhibition can be monitored via image analysis routines supporting those findings.
The nocodazole and paclitaxel variations were used to focus on compounds that are capable of inhibiting a SAC induced by both microtubule destabilization as well as microtubule stabilization. When SAC inducing agents and compounds are given simultaneously, inhibitors that effectively block the SAC during formation or abrogation are identified. When cells are incubated with a SAC inducing agent and the SAC interfering compound is given after a defined time, inhibitors are identified that effectively block SAC abrogation.
Cultivated cells of the human cervical tumor cell line HeLa (ATCC CCL-2) were plated at a density of 1000 cells/well in a 1536-well microtiter plate in 2 μl PAA Ham's F12 Medium supplemented with 1% (v/v) glutamine, 1% (v/v) penicillin, 1% (v/v) streptomycin and 10% (v/v) fetal calf serum. After incubation overnight at 37° C., 10 μl/well paclitaxel at a final concentration of 0.05 μM were added to cells. Test compounds solubilized in dimethyl sulfoxide (DMSO) were added at various concentrations (0 μM, as well as in the range of 0.005 μM-20 μM; the final concentration of the solvent DMSO was 0.5% (v/v)). Cells were incubated for 24 h at 37° C. in the presence of test compounds in combination with paclitaxel. Thereafter, cells were fixed in 4% (v/v) paraformaldehyde in phosphate buffered saline (PBS) at 4° C. overnight then permeabilized in 0.1% (v/v) Triton X™ 100 in PBS at room temperature for 20 min and blocked in 0.5% (v/v) bovine serum albumin (BSA) in PBS at room temperature for 15 min. After washing with PBS, 5 μl/well antibody solution (anti-phospho-histone H3 clone 3H10, FITC; Millipore, Cat #16-222; 1:1000 dilution) was added to cells, which were incubated for 2 h at room temperature. Afterwards, cells were washed with PBS and 5 μl/well solution of HOECHST 33342 dye (5 μg/ml) was added to cells and cells were incubated 15 min at room temperature in the dark. Cells were washed twice with PBS then covered with PBS and stored at 4° C. until analysis. Images were acquired with a PERKIN ELMER OPERA™ High-Content Analysis reader. Images were analyzed with image analysis software MetaXpress™ from Molecular devices utilizing the Mitotic Index application module. In this assay both labels HOECHST 33342 and phosphorylated Histone H3 on serine 10 were measured. HOECHST 33342 labels the DNA and is used to count the cell number. The staining of phosphorylated Histone H3 on serine 10 determines the number of mitotic cells. […] Otherwise cells were arrested at G2/M phase of the cell cycle progression. The raw assay data were further analyzed by four-parametric hill equation using Genedata's Assay Analyzer and Condoseo software.

In patent US9682995B2, “Amino-substituted isothiazoles” (BAYER PHARMA AKTIENGESELLSCHAFT, priority 2013, dated 2017) one finds IC50 data, which are given here for 16 molecules.

Sequence of human kinase Mps-1 (P33981 whole entry): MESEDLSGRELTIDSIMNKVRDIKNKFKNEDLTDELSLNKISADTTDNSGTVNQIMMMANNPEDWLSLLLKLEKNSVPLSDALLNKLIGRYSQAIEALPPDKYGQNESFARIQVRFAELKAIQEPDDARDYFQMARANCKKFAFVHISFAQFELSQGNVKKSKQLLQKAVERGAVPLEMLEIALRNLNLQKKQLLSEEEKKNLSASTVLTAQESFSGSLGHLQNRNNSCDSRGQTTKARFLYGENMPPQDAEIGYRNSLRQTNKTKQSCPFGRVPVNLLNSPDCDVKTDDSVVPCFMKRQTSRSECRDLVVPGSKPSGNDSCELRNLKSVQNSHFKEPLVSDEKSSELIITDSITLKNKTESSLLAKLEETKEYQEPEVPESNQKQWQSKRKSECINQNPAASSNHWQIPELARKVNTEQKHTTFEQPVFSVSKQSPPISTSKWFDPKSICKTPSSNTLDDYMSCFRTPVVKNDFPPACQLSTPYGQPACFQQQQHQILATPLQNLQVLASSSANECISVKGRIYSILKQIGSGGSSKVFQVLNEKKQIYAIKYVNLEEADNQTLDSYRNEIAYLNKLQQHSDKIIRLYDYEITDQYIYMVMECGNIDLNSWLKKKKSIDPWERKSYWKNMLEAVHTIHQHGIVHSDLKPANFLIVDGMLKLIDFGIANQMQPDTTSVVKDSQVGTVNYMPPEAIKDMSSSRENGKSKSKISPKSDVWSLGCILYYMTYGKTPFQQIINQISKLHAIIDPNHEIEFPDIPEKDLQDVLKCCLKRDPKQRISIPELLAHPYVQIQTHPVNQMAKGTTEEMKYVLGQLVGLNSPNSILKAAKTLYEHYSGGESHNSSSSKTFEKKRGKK

Consider `CCc1ccccc1NC(=O)c1c(C)nsc1Nc1nc(C)nc2sccc12` [Example 38, N-(2-Ethylphenyl)-3-methyl-5-[(2-methylthieno[2,3-d]pyrimidin-4-yl)amino]-1,2-thiazole-4-carboxamide], for which the IC50 was over 20 µM in assay [1] and 580 nM in assay [2].
On to `COc1ccc(NC(=O)c2c(C)nsc2Nc2ccc(C#N)cn2)cn1` [Example 39, 5-[(5-Cyanopyridin-2-yl)amino]-N-(6-methoxypyridin-3-yl)-3-methyl-1,2-thiazole-4-carboxamide], for which the IC50 is over 20 µM in assay [1] and 1300 nM in assay [2].
In the same order, the values of `Cc1nsc(Nc2cnc3ccccc3n2)c1C(=O)Nc1ccc(Cl)c(F)c1` [Example 40, N-(4-Chloro-3-fluorophenyl)-3-methyl-5-(quinoxalin-2-ylamino)-1,2-thiazole-4-carboxamide] are over 20 µM and 120 nM.
On to `CCc1ccccc1NC(=O)c1c(C)nsc1Nc1cnc2ccc(Cl)cc2n1` [Example 41, 5-[(7-Chloroquinoxalin-2-yl)amino]-N-(2-ethylphenyl)-3-methyl-1,2-thiazole-4-carboxamide], for which the IC50 is over 20 µM in assay [1] and 810 nM in assay [2].
In the same order, the values of `COc1ccc(NC(=O)c2c(C)nsc2Nc2cnc3ccc(Cl)cc3n2)cn1` [Example 42, 5-[(7-Chloroquinoxalin-2-yl)amino]-N-(6-methoxypyridin-3-yl)-3-methyl-1,2-thiazole-4-carboxamide] are over 20 µM and 890 nM.
On the same counts, the results for `COc1ccc(NC(=O)c2c(C)nsc2Nc2cnc3c(F)c(F)ccc3n2)cn1` [Example 43, 5-[(5,6-Difluoroquinoxalin-2-yl)amino]-N-(6-methoxypyridin-3-yl)-3-methyl-1,2-thiazole-4-carboxamide] are over 20 µM and 110 nM.
On the same counts, the results for `COc1ccc(NC(=O)c2c(C)nsc2Nc2cnc3ccc(F)cc3n2)cn1` [Example 44, 5-[(7-Fluoroquinoxalin-2-yl)amino]-N-(6-methoxypyridin-3-yl)-3-methyl-1,2-thiazole-4-carboxamide] are over 20 µM and 490 nM.
For the molecule `COc1ccc(NC(=O)c2c(C)nsc2Nc2cnc3cc(C(F)(F)F)ccc3n2)cn1` [Example 45, N-(6-Methoxypyridin-3-yl)-3-methyl-5-{[6-(trifluoromethyl)quinoxalin-2-yl]amino}-1,2-thiazole-4-carboxamide], the figures for the IC50 in assay [1] and in assay [2] were over 20 µM and 140 nM, respectively.
On the same counts, the results for `Cc1nsc(Nc2cnc3cc(F)ccc3n2)c1C(=O)Nc1ccc(F)c(F)c1` [Example 46, N-(3,4-Difluorophenyl)-5-[(6-fluoroquinoxalin-2-yl)amino]-3-methyl-1,2-thiazole-4-carboxamide] are over 20 µM and 34 nM.
In the same order, the values of `COc1ccc(NC(=O)c2c(C)nsc2Nc2nc3c(C(F)(F)F)cccc3s2)cc1F` [Example 47, N-(3-Fluoro-4-methoxyphenyl)-3-methyl-5-{[4-(trifluoromethyl)-1,3-benzothiazol-2-yl]amino}-1,2-thiazole-4-carboxamide] are over 20 µM and 63 nM.
On to `COc1ccc(NC(=O)c2c(C)nsc2Nc2nc3c(C(F)(F)F)cccc3s2)cn1` [Example 48, N-(6-Methoxypyridin-3-yl)-3-methyl-5-{[4-(trifluoromethyl)-1,3-benzothiazol-2-yl]-amino}-1,2-thiazole-4-carboxamide], for which the IC50 in assay [1] is over 20 µM; in assay [2] it was 140 nM.
With `Cc1nsc(Nc2ncc(C(=O)N(C)C)s2)c1C(=O)Nc1ccc(F)c(F)c1` [Example 49, N-(3,4-Difluorophenyl)-5-{[5-(dimethylcarbamoyl)-1,3-thiazol-2-yl]amino}-3-methyl-1,2-thiazole-4-carboxamide], the values for the IC50 in assay [1] and in assay [2] were over 20 µM and 960 nM, respectively.
In the same order, the values of `Cc1nsc(Nc2cnc3ccccc3n2)c1C(=O)Nc1ccc(F)c(F)c1` [Example 50, N-(3,4-Difluorophenyl)-3-methyl-5-(quinoxalin-2-ylamino)-1,2-thiazole-4-carboxamide] are over 20 µM and 28 nM.
In the same order, the values of `Cc1nsc(Nc2nc3c(C(F)(F)F)cccc3s2)c1C(=O)Nc1ccc(F)c(F)c1` [Example 51, N-(3,4-Difluorophenyl)-3-methyl-5-{[4-(trifluoromethyl)-1,3-benzothiazol-2-yl]-amino}-1,2-thiazole-4-carboxamide] are over 20 µM and 35 nM.
On the same counts, the results for `Cc1nsc(Nc2ccc(C#N)cn2)c1C(=O)Nc1ccc(Cl)c(F)c1` [Example 52, N-(4-Chloro-3-fluorophenyl)-5-[(5-cyanopyridin-2-yl)amino]-3-methyl-1,2-thiazole-4-carboxamide] are over 20 µM and 16 nM.
Consider `Cc1nsc(Nc2nc3c(C(F)(F)F)cccc3s2)c1C(=O)Nc1ccc(Cl)c(F)c1` [Example 53, N-(4-Chloro-3-fluorophenyl)-3-methyl-5-{[4-(trifluoromethyl)-1,3-benzothiazol-2-yl]amino}-1,2-thiazole-4-carboxamide], for which the results for the IC50 in assay [1] and in assay [2] were over 20 µM and 590 nM, respectively.
